Experimental data published in publication PMC9694711, “Synthesis of Paclitaxel Derivatives for Remote Loading into Liposomes and Improved Therapeutic Effect” (Molecules, 2022).

Columns and labels:
[1] = test system: colon cancer cell line HCT-116; test: MTT assay, cytotoxicity on HCT-116; assay type: cell-based, human; settings: for GI50: Homo sapiens, HCT-116, MTT, 72 h, mean of two independent determinations; for TI (LO2/HCT-116): therapeutic index, GI50 LO2 / GI50 HCT-116
Experimental: (§1) MTT assay was applied to verify the rationality of the molecular combination strategy. The cytotoxicity of the compounds was evaluated on lung cancer cell line A549, colon cancer cell line HCT-116, breast cancer cell line 4T1 and normal hepatocyte cell line LO2. Paclitaxel was used as a positive drug. […] The therapeutic index (TI) for LO2/HCT-116, LO2/A549 and LO2/4T1 of active compounds 4a, 4d, 13a, 17a, 17c and paclitaxel are shown in Table 2.
(§2) Cells were inoculated in 96-well plates (cell density 2 × 10^4 cells/well) followed by incubation for 24 h at 37 °C. Paclitaxel and target compounds were added to the corresponding well. Subsequently, the cultures were incubated for 72 h. After the MTT solution (50 µL, 2 mg/mL) was added to cultures, the plates were incubated for an additional 4 h. Purple colored formazan crystals were dissolved in 200 µL DMSO, and the absorbance was recorded at 570 nm using Synergy HT, Bio-Tek (Winooski, VT, USA).

[2] = Liposome loading with ATP and saccharides gradients; assay type: physicochemical; settings: gradient ATP
Experimental: (§3) The reason for the stability of the neutral formulations was potentially due to the fact that PBA was effectively […] and interacted with copper more tightly in the neutral condition compared with the acidic condition. Thus, the neutral Cu-gluconate was selected as the inner phase. The concentration of copper ions was also investigated, showing that the higher the copper concentration, the higher the EE. Considering the safety of copper ions, 300 mM was chosen. […] The EE of compound 4d active loading liposome was more than 95% with copper ion gradient. Furthermore, we also evaluated the ATP and saccharides as remote gradients with the optimal formulation of copper ion gradients.
Thus, the copper ion gradient was chosen for further experiments.
Blank liposomes were prepared for membrane hydration. HSPC, chol and DSPE-PEG2000 were dissolved using chloroform at a mass ratio of 3:1:0.02 and then spin-evaporated at 37 °C. The obtained film was then hydrated with 300 mM Cu-Glu (pH 7.4) at 65 °C for 30 min. […] The encapsulation efficiency and drug loading efficiency of compound 4d were determined using HPLC. The morphologies of liposomes were characterized using a transition electron microscope (TEM, Hitachi HT7700, Tokyo, Japan); then, their size, PDI and Zeta potential were measured using a Zetasizer Nano ZS90 (Malvern, UK).

[3] = Liposome loading with calcium acetate gradients; assay type: physicochemical; settings: sediment precipitated after loading
Description: Since boronic acid RB(OH)2 is not only a weak acid, but also a structure that can complex with copper ions, ATP and saccharides, we investigated whether different inner phases could be employed to encapsulate compounds (4a, 4d, 13a, 17a, 17c) with good therapeutic index.

[4] = Liposome loading with copper ion gradients (encapsulation efficiency by HPLC); assay type: physicochemical; settings: copper ion gradient
Description: Vyxeos® is a liposomal formulation of a fixed molar ratio (1:5) combination of the antineoplastic drugs daunorubicin (DN) and cytarabine (Cyt). Daunorubicin is subsequently actively encapsulated with high efficiency through complexation with intra-liposomal copper. The copper gluconate buffer forms a complex with daunorubicin at a ratio of 1:1 to 1:2 [25]. Referring to Vyxeos®, copper ion was selected as a complexed metal ion in the inner phase. […] Therefore, compound 4d was selected to investigate the effect of the anions on the loading efficiency. Among them, only the neutral gluconate copper was a suitable inner phase to facilitate the encapsulation of compound 4d (Table 3).
as §3
(§4) Blank liposomes were prepared for membrane hydration. HSPC, chol and DSPE-PEG2000 were dissolved using chloroform at a mass ratio of 3:1:0.02 and then spin-evaporated at 37 °C. The obtained film was then hydrated with 300 mM Cu-Glu (pH 7.4) at 65 °C for 30 min. The multi-layer vesicles were subsequently put into an extruder and passed through polycarbonate membranes with pore sizes of 400 nm, 200 nm and 100 nm 12 times at 65 °C containing 20 mM HEPES, 15 mM EDTA and 300 mM sucrose for removing the un-encapsulated Cu^2+, and then EDTA was removed with 20 mM HEPES and 300 mM sucrose buffer (pH 7.4, adjusted with triethylamine). Compound 4d was dissolved in DMSO and slowly added into the liposome at 65 °C for 30 min and then quenched in an ice bath for 5 min (the drug to lipid ratio was 1:10). The encapsulation efficiency and drug loading efficiency of compound 4d were determined using HPLC. The morphologies of liposomes were characterized using a transition electron microscope (TEM, Hitachi HT7700, Tokyo, Japan); then, their size, PDI and Zeta potential were measured using a Zetasizer Nano ZS90 (Malvern, UK).

[5] = test system: normal hepatocyte cell line LO2; test: MTT assay, cytotoxicity on normal cell LO2; assay type: cell-based; settings: Hepatocyte; MTT, 72 h; mean of two independent determinations
Experimental: as §1, §2

[6] = Characterisation of compound 4d liposome (size, PDI, zeta potential, loading, storage stability); assay type: physicochemical; settings: optimal formulation, drug to lipid ratio 1:10
Experimental: The morphology of compound 4d liposome is shown in Figure 3 and Figure 4, with spherical particles, a narrow size distribution at ~110 nm and zeta potential at ~−15 mV (Table S2).
as §4

[7] = test system: breast cancer cell line 4T1; test: MTT assay, cytotoxicity on 4T1; assay type: cell-based, mouse; settings: for GI50: Mus musculus, MTT, 72 h, mean of two independent determinations; for TI (LO2/4T1): therapeutic index, GI50 LO2 / GI50 4T1
Experimental: as §1, §2

[8] = test system: lung cancer cell line A549; test: MTT assay, cytotoxicity on A549; assay type: cell-based, human; settings: for GI50: Homo sapiens, A549, MTT, 72 h, mean of two independent determinations; for TI (LO2/A549): therapeutic index, GI50 LO2 / GI50 A549
Experimental: as §1, §2

[9] = test system: 4T1 xenograft tumor; test: In vivo antitumor efficacy and toxicity, 4T1 tumor model; settings: 8 mg/kg, 4 times; mice bearing 4T1 tumor
Experimental: A549 and HCT-116 cells are human tumor cells, while 4T1 cells are mouse tumor cells. Based on the availability of the tumor model, mice bearing a 4T1 xenograft tumor were used to study the in vivo antitumor efficacy of the compound 4d liposome. As depicted in Figure 6a, there was difference between compound 4d (8 mg/kg) and the paclitaxel control group (8 mg/kg).
The antitumor effect was evaluated by the nude mice armpit tumor model bearing breast cancer 4T1 cells. When the average tumor volume reached 100 mm^3, the treatment was initiated at a 3-day interval for 12 days. The mice were randomly divided into five groups (n = 5 per group) receiving different palictaxel at 8 mg/kg as follows: saline (the control group), taxol, compound 4d, compound 4d liposome, high dose 4d liposome (3 times the dose, immediately 24 mg/kg). Tumor volume (V = length × width^2/2) and body weight were recorded. At the end of the experiment, mice were sacrificed. The obtained tumors were accurately weighed to calculate the tumor burden (Wtumor/Wbody) and tumor inhibition rate [TIR= (Wcontrol tumor − Wsample tumor)/Wcontrol tumor].

Row | Structure (SMILES) | GI50 [1] [nM] | TI (LO2/HCT-116) [1] | loading with inner phase of ATP [2] | encapsulation into liposomes by calcium acetate gradients [3] | Encapsulated efficiency, optimal formulation ([4]; drug-to-lipid ratio of 0.1 w/w (1:10)) [%] | GI50 [5] [nM] | Loading efficiency (%) [6] [%] | GI50 [7] [nM] | TI (LO2/4T1) [7] | GI50 [8] [nM] | TI (LO2/A549) [8] | inhibition % at fixed concentration, HCT-116 (printed in GI50 column) ([1]; @6.25 nM) [%@6.25 nM] | tumor inhibition rate [9] [%] | inhibition % at fixed concentration, A549 (printed in GI50 column) ([8]; @6.25 nM) [%@6.25 nM] | loading into liposomes, copper ion as complexed metal ion in the inner phase [4]
1 | CC(=O)OC1C(=O)C2(C)C(O)CC3OCC3(OC(C)=O)C2C(OC(=O)c2ccccc2)C2(O)CC(OC(=O)C(OC(=O)CSSCC(=O)OCc3ccc(B(O)O)cc3)C(NC(=O)c3ccccc3)c3ccccc3)C(C)=C1C2(C)C (centres unmarked) [Compound 4d, 2’-O-[2-((2-((4-boronobenzyl)oxy)-2-oxoethyl)disulfaneyl)acetyl]taxol] | 13 | 49.1 | not successful | not feasible | > 95 | 639 | 9.02 | 69.8 | 9.2 | 13.9 | 45.9 |  |  |  | 
2 | CC(=O)O[C@H]1C(=O)[C@@]2(C)[C@H]([C@H](OC(=O)c3ccccc3)[C@]3(O)C[C@H](OC(=O)[C@H](O)[C@@H](NC(=O)c4ccccc4)c4ccccc4)C(C)=C1C3(C)C)[C@]1(OC(C)=O)CO[C@@H]1C[C@@H]2O [paclitaxel] |  |  |  |  |  | 69.1 |  | 25.3 | 2.7 |  |  | 81.86 | 58.5 | 64.96 | 
3 | CC(=O)OC1C(=O)C2(C)C(O)CC3OCC3(OC(C)=O)C2C(OC(=O)c2ccccc2)C2(O)CC(OC(=O)C(OC(=O)OCc3ccc(B(O)O)cc3)C(NC(=O)c3ccccc3)c3ccccc3)C(C)=C1C2(C)C (centres unmarked) [Compound 13a, 2’-O-[4-boronobenzyl carbonate]taxol] | 8.73 | 111.3 |  | not feasible |  | 972 |  | 92.9 | 10.5 | 22.5 | 43.3 |  |  |  | failed in loading into the liposomes
4 | CC(=O)OC1C(=O)C2(C)C(O)CC3OCC3(OC(C)=O)C2C(OC(=O)c2ccccc2)C2(O)CC(OC(=O)C(OC(=O)CCB(O)O)C(NC(=O)c3ccccc3)c3ccccc3)C(C)=C1C2(C)C (centres unmarked) [Compound 17a, 2’-O-[3-boronopropanoyl]taxol] | 7.98 | 89.5 |  | not feasible |  | 715 |  | 68.1 | 10.5 | 21.8 | 32.7 |  |  |  | failed in loading into the liposomes
